These results are taken from patent US8129427B2, “2-phenylethylamino derivatives as calcium and/or sodium channel modulators” (Newron Pharmaceuticals S.p.A., priority 2005, dated 2012).

For assay [1], the target named is recombinant human N-type channels, h α1B (hCav2.2)+β1b+α2δ-1 subunits (Homo sapiens, UniProt Q00975). Description: Patch clamp studies of calcium currents inhibition in HEK293 cells. Format: cell-based. As to conditions: tonic block, preconditioning −50/−55 mV (half maximal steady-state inactivated condition); read-out: IC50 (Vhalf). The method, then:
Functional inhibition of the N-type Ca currents was studied using whole cell patch clamp methods (Hamill O. P., Marty A., Neher E., Sakmann B., Sigworth F. J. Pflugers Arch. (1981) 391: 85-100) on HEK293 cells expressing recombinant human N-type channels, obtained after transient transfection of h α1B (hCav2.2)+β1b+α2δ-1 subunits.
Membrane currents were recorded and filtered at 5 kHz with an Axon Axopatch 200B amplifier and digitized with an Axon Digidata 1322A (Axon Instruments, CA, USA). Voltage clamping of membrane potentials and data acquisition were controlled online with Axon pClamp8 software. Measuring and reference electrodes were AgCl—Ag electrodes. Cells had initial seal resistances of >1 GΩ and access resistances of 4.2±0.2 MΩ. Cells were continuously superfused with extracellular solutions using a Biologic RSC-200.
For calcium currents recording the control bath solution contained (mM): Choline chloride (70), MgCl2 (1), BaCl2 (20), TEA.Cl (50), Hepes (10), Glucose (10). Internal pipette solution consisted of (mM): CsCl (140), EGTA (10), MgCl2 (2), Hepes (10), MgATP (1), GTP Tris (0.3).
(§1) Compounds were dissolved as 20 mM stock solutions in DMSO and then diluted to the final concentration in the external solutions.
A two-step protocol was used to determine the voltage dependence of the block:
N-type current was activated by a 600 ms step pulse to +10 mV (test pulse) from a 5000 ms preconditioning potential of −110 mV (resting condition) or −50/−55 mV (half maximal steady-state inactivated condition), respectively.
The amplitude of calcium current peaks evoked by the respective test pulses at a frequency of 0.06 Hz were measured before and after exposure to the test substance. Tonic block of currents was calculated as the difference between the peak calcium current measured at the end of a stabilization period in the control external bath solution and peak currents measured at the end of test substance perfusion period (when steady state is reached) divided by control peaks. […]
On the technique in general: The patch-clamp technique gives a direct electrical read-out from membranes.

Assay [2] has as its target T1, recombinant Nav 1.3 channels (Homo sapiens, UniProt Q9NY46).
T1 construct: expressed in transfected cells; host or cells: HEK293 cells
Description: Patch clamp studies of sodium currents inhibition in HEK293 cells. Type of assay: cell-based. As to conditions: tonic block, preconditioning −50 mV (half maximal steady-state inactivated condition); read-out: IC50 (Vhalf). Here is the method:
Cells and methods: Functional inhibition of the sodium currents was studied using whole cell patch clamp methods (Hamill O. P., Marty A., Neher E., Sakmann B., Sigworth F. J., Pflugers Arch. (1981) 391 (2): 85-100) on HEK293 cells expressing recombinant Nav 1.3 channels. Membrane currents were recorded as described in the example above.
For sodium current recording control bath solution contained (mM): NaCl (80), Choline chloride (38), CaCl2 (1.3), MgCl2 (2), KCl (2), CdCl2 (0.4), NiCl2 (0.3), TEA.Cl (20), Hepes (10), Glucose (10). Internal pipette solution consisted of (mM): EGTA (10), NaCl (10), CaCl2 (1.3), MgCl2 (2), Hepes (10), CsF (130), MgATP (1).
as §1
Voltage protocols and data analyses: A two-step protocol was used to determine the voltage dependence of the block:
sodium current was activated by a 30 ms step pulse to 10 mV (test pulse) from a 2000 ms preconditioning potential of −100 mV (resting condition) or −50 mV (half maximal steady-state inactivated condition), respectively.
The amplitude of sodium current peaks evoked by the respective test pulses at a frequency of 0.06 Hz were measured before and after exposure to the test substance. Tonic block of currents was calculated as the difference between the Nacurrent peak measured at the end of a stabilization period in the control external bath solution and the current peak measured at the end of test substance perfusion period (when steady state is reached) divided by control peaks. Drug concentration-inhibition curves were obtained by plotting tonic blocks versus drug concentrations. Dose-response curves were fitted to the tonic block data, according to the logistic equation: y=A2+(A1−A2)/[1+(x/IC50)^p]. A1 and A2 are fixed values of 0 and 1 corresponding to 0 and 100% current inhibition, x is the drug concentration, IC50 is the drug concentration resulting in 50% current inhibition and p is the corresponding slope factor.

The test system of the next assay is L-type calcium channels. Format: cell-based, mouse. As to conditions: AtT20/D16v-F2 cells, ω-conotoxin 1 μM, 100 mM KCl depolarization.
For a further assay, the system named is TTXs sodium channels. Description: TTXs-sodium channel influx assay (membrane potential fluorescence). Type of assay: cell-based, rat. As to conditions: ND7/23 cells, veratridine 100 μM. Here is the method:
ND7/23 rat dorsal root ganglion-derived cell line endogenously expresses a mixed population of TTXs sodium channels (such as Nav1.3, Nav1.2, Nav1.1, Nav1.6). These cells lack of TTXr sodium channels as shown by the absence of their respective transcripts. ND7/23 cells were grown in DMEM supplemented with 10% FBS and 1 mM sodium piruvate.
The cells were seeded at 50,000 cells/well on 96 poly-L-lysine-coated plates and further incubated for 18-24 h before use.
The Membrane Potential Kit Assay (Molecular Devices), based on a negatively charged fluorescent dye able to monitor changes in membrane potential caused by the sodium influx due to the channel opening, was used for the assay.
Cells were incubated with the dye loading for 30 minutes at 25° C. Then, 100 nM of the toxin Anemonia sulcata (used as enhancer of the channel opener response) alone or in the presence of TTX (as reference standard) or test compound were added for further 15 minutes.
The fluorescence (excitation: 530 nm, emission: 565 nm wavelength) was measured before and after (40-45 s) the automated injection of the sodium channel opener veratridine (100 μM) using a Victor plate reader (Perkin Elmer).
The inhibition curves were calculated from 5 concentrations, each in triplicate, and the IC50 determined using a linear regression analysis.

A further assay deals with N-type calcium channels (Homo sapiens, UniProt Q00975). The assay can be described thus: N-type calcium channel influx assay (fluorescence). Type of assay: cell-based. As to conditions: differentiated IMR32 cells, nifedipine 1 μM, 100 mM KCl depolarization; read-out: IC50.
Sequence of N-type calcium channels (Q00975 whole entry): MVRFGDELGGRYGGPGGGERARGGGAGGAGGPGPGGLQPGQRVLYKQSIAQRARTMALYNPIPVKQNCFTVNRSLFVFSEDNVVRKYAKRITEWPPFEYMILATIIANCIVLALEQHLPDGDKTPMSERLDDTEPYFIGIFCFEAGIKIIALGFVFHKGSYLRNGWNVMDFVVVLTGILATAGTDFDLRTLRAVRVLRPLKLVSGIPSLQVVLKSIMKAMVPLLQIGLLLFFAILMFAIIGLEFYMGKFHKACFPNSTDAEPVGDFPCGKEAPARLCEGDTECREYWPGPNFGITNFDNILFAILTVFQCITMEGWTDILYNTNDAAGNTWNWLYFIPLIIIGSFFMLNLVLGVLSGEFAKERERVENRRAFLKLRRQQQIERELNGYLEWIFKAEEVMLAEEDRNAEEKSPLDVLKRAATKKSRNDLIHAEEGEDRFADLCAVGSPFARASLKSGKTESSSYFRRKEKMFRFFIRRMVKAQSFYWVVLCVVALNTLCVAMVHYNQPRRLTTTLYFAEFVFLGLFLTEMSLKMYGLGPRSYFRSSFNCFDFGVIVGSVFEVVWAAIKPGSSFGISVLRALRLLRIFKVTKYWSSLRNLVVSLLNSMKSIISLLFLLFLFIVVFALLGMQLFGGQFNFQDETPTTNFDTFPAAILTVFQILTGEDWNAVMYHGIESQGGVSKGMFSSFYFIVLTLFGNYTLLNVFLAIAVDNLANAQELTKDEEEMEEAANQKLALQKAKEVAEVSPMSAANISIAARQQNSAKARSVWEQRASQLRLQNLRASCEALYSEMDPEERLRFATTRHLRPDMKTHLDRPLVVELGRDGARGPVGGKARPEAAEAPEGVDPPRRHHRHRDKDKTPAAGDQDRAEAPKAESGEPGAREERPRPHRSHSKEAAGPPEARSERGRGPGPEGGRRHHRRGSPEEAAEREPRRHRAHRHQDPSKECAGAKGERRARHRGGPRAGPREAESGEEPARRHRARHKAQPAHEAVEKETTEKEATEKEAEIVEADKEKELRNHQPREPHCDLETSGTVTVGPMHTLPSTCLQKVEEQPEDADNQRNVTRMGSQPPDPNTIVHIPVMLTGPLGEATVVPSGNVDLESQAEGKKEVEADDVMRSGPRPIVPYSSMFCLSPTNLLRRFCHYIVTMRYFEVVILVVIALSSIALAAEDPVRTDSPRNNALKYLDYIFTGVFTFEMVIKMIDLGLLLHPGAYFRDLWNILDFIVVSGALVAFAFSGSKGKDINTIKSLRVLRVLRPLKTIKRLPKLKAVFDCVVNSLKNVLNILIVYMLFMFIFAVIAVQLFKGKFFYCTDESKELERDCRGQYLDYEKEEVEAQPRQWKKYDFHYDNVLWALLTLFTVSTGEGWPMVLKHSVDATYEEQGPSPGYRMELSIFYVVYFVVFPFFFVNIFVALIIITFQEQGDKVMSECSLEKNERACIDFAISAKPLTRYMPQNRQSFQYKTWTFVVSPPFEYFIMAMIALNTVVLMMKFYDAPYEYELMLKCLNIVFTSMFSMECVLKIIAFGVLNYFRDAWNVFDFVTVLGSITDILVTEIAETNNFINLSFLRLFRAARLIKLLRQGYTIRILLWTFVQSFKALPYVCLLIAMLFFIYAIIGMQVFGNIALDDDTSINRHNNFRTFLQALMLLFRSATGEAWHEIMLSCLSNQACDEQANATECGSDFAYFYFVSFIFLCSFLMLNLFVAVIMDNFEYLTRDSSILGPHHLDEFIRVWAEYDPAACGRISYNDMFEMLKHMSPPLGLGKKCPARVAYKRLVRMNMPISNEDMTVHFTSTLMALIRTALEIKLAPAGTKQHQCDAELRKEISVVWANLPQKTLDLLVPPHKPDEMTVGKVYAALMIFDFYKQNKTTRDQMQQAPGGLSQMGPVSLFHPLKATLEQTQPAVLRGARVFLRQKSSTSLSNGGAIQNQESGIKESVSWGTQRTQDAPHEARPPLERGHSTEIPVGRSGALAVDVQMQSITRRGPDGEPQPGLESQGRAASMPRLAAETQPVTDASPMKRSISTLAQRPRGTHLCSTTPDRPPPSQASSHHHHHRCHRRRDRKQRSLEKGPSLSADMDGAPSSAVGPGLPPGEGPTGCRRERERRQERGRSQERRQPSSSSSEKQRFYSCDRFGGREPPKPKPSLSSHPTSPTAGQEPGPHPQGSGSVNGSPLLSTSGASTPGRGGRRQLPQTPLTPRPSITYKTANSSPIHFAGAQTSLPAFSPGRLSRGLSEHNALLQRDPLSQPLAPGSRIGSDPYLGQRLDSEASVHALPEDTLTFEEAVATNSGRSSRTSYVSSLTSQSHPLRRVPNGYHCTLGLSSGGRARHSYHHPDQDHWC
Sequence of N-type calcium channels (Q02641 whole entry partner): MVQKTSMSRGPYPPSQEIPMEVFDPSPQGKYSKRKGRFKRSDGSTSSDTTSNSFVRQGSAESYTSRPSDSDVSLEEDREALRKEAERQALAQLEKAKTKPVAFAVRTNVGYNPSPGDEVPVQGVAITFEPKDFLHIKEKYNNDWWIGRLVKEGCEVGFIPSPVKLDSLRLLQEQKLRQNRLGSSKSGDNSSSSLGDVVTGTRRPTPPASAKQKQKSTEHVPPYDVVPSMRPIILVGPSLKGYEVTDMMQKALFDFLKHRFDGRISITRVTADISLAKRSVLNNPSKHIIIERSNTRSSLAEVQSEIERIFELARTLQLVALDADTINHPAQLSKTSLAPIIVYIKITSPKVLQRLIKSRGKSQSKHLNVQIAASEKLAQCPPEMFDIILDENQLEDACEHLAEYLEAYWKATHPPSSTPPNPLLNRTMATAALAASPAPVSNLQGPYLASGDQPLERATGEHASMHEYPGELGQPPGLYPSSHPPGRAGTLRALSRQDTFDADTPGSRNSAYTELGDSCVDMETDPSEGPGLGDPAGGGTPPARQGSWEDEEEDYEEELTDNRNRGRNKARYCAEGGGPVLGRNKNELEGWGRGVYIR
Sequence of N-type calcium channels (P54289 25-956 partner limits assumed): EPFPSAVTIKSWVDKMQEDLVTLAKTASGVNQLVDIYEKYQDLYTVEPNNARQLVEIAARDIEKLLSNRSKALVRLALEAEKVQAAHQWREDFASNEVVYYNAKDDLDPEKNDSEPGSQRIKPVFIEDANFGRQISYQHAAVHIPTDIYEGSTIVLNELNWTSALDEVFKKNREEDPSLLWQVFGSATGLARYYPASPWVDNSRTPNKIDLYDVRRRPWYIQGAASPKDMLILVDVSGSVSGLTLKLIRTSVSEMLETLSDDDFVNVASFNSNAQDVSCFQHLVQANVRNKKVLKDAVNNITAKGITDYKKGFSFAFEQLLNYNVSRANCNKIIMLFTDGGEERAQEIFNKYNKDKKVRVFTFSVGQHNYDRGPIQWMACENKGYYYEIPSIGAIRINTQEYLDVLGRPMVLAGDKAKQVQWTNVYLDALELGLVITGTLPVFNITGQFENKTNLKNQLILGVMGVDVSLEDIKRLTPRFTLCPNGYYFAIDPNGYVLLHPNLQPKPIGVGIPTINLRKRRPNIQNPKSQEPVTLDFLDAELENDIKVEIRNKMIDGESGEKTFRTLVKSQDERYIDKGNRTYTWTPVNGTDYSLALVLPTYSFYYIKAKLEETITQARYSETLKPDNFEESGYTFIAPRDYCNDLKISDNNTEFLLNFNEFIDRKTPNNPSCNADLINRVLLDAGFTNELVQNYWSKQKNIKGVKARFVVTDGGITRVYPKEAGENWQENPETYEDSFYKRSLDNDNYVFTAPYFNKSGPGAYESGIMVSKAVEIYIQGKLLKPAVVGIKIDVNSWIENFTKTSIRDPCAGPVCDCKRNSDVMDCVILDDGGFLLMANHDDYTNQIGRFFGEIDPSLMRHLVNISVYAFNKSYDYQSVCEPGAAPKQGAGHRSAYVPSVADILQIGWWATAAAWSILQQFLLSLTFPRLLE
Sequence of N-type calcium channels (P54289 957-1103 partner limits assumed): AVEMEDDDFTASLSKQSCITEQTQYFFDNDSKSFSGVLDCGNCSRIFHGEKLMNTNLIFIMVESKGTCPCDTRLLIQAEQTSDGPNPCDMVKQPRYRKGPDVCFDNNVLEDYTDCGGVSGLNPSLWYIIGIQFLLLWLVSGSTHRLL
In assay [3] the test system is maximal electroshock seizures in mice. The assay can be described thus: Maximal electroshock test (MES) in mice. Format: in vivo, mouse. As to conditions: i.v., 5 minutes before testing. From the text: Animals and Apparatus: Male CDl mice weighing 25 g were used. The procedure described by White et al. (White H. S., Woodhead J. H., Franklin […]., and Wolf H. H. Antiepileptic Drugs (1995) 4th ed: 99-110, Raven Press, Ltd., New York) was followed. An Ugo Basile electroconvulsive generator (Model ECT UNIT 7801) was used to deliver an electrical stimulus sufficient to produce a hindlimb tonic extensor response in at least 97% of control animals. The stimulus was delivered intra-aurally through clip electrodes in mice (0.7 s of a 40 mA shock, with a pulse train of 80 Hz having a pulse duration of 0.4 ms). […] Ten mice were studied per group. Complete suppression of the hindlimb tonic extensor component of seizures was taken as evidence of anticonvulsant activity.

The target in the next assay is T2, MAO-B (Rattus norvegicus, UniProt P19643).
T2 construct: from tissue; host or cells: rat brain crude mitochondrial fraction
T2 sequence (P19643 1-520): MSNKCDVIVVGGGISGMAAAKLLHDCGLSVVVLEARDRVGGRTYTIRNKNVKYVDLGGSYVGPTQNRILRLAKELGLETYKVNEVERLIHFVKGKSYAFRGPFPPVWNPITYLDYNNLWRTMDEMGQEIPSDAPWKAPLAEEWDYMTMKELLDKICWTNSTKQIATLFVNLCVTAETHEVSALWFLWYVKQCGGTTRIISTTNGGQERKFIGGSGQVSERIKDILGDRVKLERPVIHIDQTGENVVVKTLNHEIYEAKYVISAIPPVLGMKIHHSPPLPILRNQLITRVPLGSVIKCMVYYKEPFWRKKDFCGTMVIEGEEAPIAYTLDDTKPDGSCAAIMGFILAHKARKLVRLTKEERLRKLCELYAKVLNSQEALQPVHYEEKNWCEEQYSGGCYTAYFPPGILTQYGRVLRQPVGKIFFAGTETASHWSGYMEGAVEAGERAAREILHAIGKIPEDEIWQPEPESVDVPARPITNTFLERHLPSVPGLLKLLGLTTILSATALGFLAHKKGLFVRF
Description: In vitro MAO-B enzyme activity radioenzymatic assay. Format: biochemical. As to conditions: 100 μM compound, rat brain crude mitochondrial fraction, 14C-PEA substrate. Here is the method: Male Wistar rats (Harlan, Italy—175-200 g) were sacrificed under light anaesthesia and brains were rapidly removed and homogenized in 8 volumes of ice-cold 0.32 M sucrose buffer containing 0.1 M EDTA, pH 7.4. The crude homogenate was centrifuged at 2220 rpm for 10 minutes and the supernatant recovered. The pellet was homogenized and centrifuged again. The two supernatants were pooled and centrifuged at 9250 rpm for 10 minutes at +4° C. The pellet was resuspended in fresh buffer and centrifuged at 11250 rpm for 10 minutes at +4° C. The resulting pellet was stored at −80° C.
The enzyme activities were assessed with a radioenzymatic assay using the substrates ^14C-serotonin (5-HT) and ^14C-phenylethylamine (PEA) for MAO-A and MAO-B, respectively.
The mitochondrial pellet (500 μg protein) was resuspended in 0.1 M phosphate buffer (pH 7.4). 500 μl of the suspension were added to a 50 μl solution of the test compound or buffer, and incubated for 30 min at 37° C. (preincubation) then the substrate (50 μl) was added. The incubation was carried out for 30 minutes at 37° C. (^14C-5-HT, 5 μM) or for 10 minutes at 37° C. (^14C-PEA, 0.5 μM).
The reaction was stopped by adding 0.2 ml of 37% HCl or perchloric acid. After centrifugation, the deaminated metabolites were extracted with 3 ml of diethyl ether (5-HT) or toluene (PEA) and the radioactive organic phase was measured by liquid scintillation spectrometry at 90% efficiency. The amount of neutral and/or acidic metabolites formed as a result of MAO activity was obtained by measuring the radioactivity of the eluate.
The activity of MAO in the sample, corresponding to a percentage of radioactivity compared with the control activity in the absence of the inhibitor, was expressed as nmoles of substrate transformed/mg protein/min.

SMILES strings stand for the structures. Structures can show the parent of a compound that is named as a salt.

Sequence of recombinant human N-type channels, h α1B (hCav2.2)+β1b+α2δ-1 subunits (Q00975 whole entry): as the sequence (Q00975 whole entry) above
Sequence of recombinant human N-type channels, h α1B (hCav2.2)+β1b+α2δ-1 subunits (Q02641 whole entry partner): as the sequence (Q02641 whole entry partner) above
Sequence of recombinant human N-type channels, h α1B (hCav2.2)+β1b+α2δ-1 subunits (P54289 25-956 partner limits assumed): as the sequence (P54289 25-956 partner limits assumed) above
Sequence of recombinant human N-type channels, h α1B (hCav2.2)+β1b+α2δ-1 subunits (P54289 957-1103 partner limits assumed): as the sequence (P54289 957-1103 partner limits assumed) above

As to `CNC(=O)CN(CCc1ccc(OCc2cccc(F)c2)c(OC)c1)CC1CCOC1` (centres unmarked) [Example 7, 2-[[2-[4-(3-Fluoro-benzyloxy)-3-methoxy-phenyl]-ethyl]-(tetrahydrofuran-3-ylmethyl)amino]-N-methyl-acetamide hydrochloride], the IC50 in assay [1] stood at 11 µM.

`CNC(=O)CN(CCc1ccc(OCc2cccc(F)c2)c(OC)c1)CC1CC1` [Example 8, 2-[[2-[4-(3-Fluoro-benzyloxy)-3-methoxy-phenyl]-ethyl]-(cyclopropylmethyl)amino]-N-methyl-acetamide hydrochloride]: the IC50 worked out at 5.2 µM in assay [1]; 9.8 µM in assay [2]; 3.8 µM in the assay with L-type calcium channels; 3.5 µM in the assay with TTXs sodium channels; 2.1 µM on N-type calcium channels.

With `C[C@H](NCc1ccc(OCc2cccc(F)c2)cc1)C(N)=O` [safinamide, (S)-(+)-2-[4-(3-fluoro-benzyloxy)-benzylamino]-propanamide, reference compound], in assay [3], the “50% Protection” value is “(4.0 mg/kg/iv)”. Further, at 100 µM the inhibition against MAO-B was 100%.

What is called IC50 is the concentration at which inhibition is half-maximal. For orientation: inhibition means the relative decrease from the control value, in per cent.
